Where “and” joins values, the source holds several entries; their conditions need not be identical. Identical values can stand only once. Calls of active or inactive are those of the source.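 Rule for the calls: active = compounds giving half or more protection of infected cells from virus-caused growth loss, again on retest; inactive = the rest.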 Where a SMILES comes first, the peptide text is derived from it.
Tested on: CEM cells HIV-1 protection, formazan growth assay
Test: NCI AIDS Antiviral Assay
Conditions: for IC50: measured here: growth of uninfected CEM cells
How it was run: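 Soluble formazan readout of cell growth; CEM cells ± HIV-1; 5 drug concs. ≥50% protection → retest; ≥50% again = moderately active; reproducible 100% = confirmed active.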

Row | Compound | EC50 | IC50 | outcome
1 | CCCCCC[P+](c1ccccc1)(c1ccccc1)c1ccccc1 | > 200 µM | 0.741 µM | 
2 | COc1ccc(/C=C2\C(=O)N(C(=O)Cc3ccccc3)N=C2C)cc1OC | > 51.3 µM | > 51.3 µM | 
3 | CN1BN(C)BN(C)B1 | > 2040 µM | > 2040 µM | 
4 | Cc1cc(Cl)cc2c1NC(=O)C2(O)CC(=O)c1ccco1 (stereo unspecified) | > 117 µM | 63.1 µM | 
5 | Cn1nc(-c2ccccc2)c(C(=O)/C=C/c2ccc(Cl)cc2)c(N2CCCCC2)c1=O | > 17.8 µM | > 17.8 µM | 
6 | NC1(C(=O)O)CSSC1 |  | 10.7 µM and 8.71 µM | 
7 | O=C(Nc1ccn(CCO)c(=O)n1)c1ccccc1 | > 692 µM | > 692 µM | 
8 | CCCNC(=S)N=Nc1c(O)[nH]c2ccccc12 | > 200 µM | > 200 µM | 
9 | CC(C)=CCC/C(C)=C/CCC(C(=O)COCc1ccccc1)P1(=O)OC(C)(C)CN1C(C)(C)C (stereo unspecified) | > 200 µM | 61.7 µM | 
10 | CC(C)(C)c1ccc(Br)c(CCC(=O)NO)c1 |  |  | inactive
11 | Cn1c(=O)c2c(nc3n(Cc4ccccc4)c(=O)c(Br)cn23)n(C)c1=O | > 100 µM | 38.9 µM | 
12 | O=C(NCCCCCCNC(=O)c1cnc2ccccc2n1)c1cnc2ccccc2n1 | > 83.2 µM | > 83.2 µM | 
13 | O=C(c1ccc(F)cc1)c1cccc(C(=O)c2ccc(F)cc2)n1 | > 30.9 µM | > 30.9 µM | 
14 | CC1(C(=O)Nc2ccccc2)CC2(C)CC(C)(C1)C(O)NC2=O (stereo unspecified) |  |  | inactive
15 | COC1/C=C/OC2(C)Oc3c(C)c(O)c4c(O)c(c(/C=N/N5CC(C)(C)N(Cc6ccccc6)CC5(C)C)c(O)c4c3C2=O)NC(=O)C(C)=C/C=C/C(C)C(O)C(C)C(O)C(C)C(OC(C)=O)C1C (stereo unspecified) | > 27.5 µM | 3.31 µM | 
16 | O=C(O)c1ccc(-c2ccc(-c3cc(=S)sc(=O)[nH]3)cc2)cc1 | > 263 µM | 89.1 µM | 

Row | Compound | EC50 | IC50 | outcome
17 | O=C(O)CSc1cc2c3ccccc3sc2c2ccccc12 | > 6.17 µM | > 6.17 µM | 
18 | C[Si](C)(C)/C(Br)=C\CCN1C(=O)CCC1O (stereo unspecified) |  |  | inactive
19 | CC(/C=C/C=C/C=C/C=C/C=C/C(O)=C1/C(=O)C(CCC(=O)O)N(C)C1=O)=C\C(C)C(OC1CC(O)C(O)C(C)O1)C(C)C (stereo unspecified) |  |  | inactive
20 | CC(C)(C)C1COP(=O)(c2ccccc2)N(c2ccccc2)C1 (stereo unspecified) | > 200 µM | 38 µM | 
21 | CCN(CC)Cc1cc(Nc2ccnc3ccc4nn(C)nc4c23)ccc1O | > 603 µM | 15.8 µM | 
22 | COc1ccc2c(C)cc(N/N=C/c3sccc3C)nc2c1 | > 200 µM | 8.32 µM | 
23 | C[Si](C)(C)C#CCOC=C1CC1 |  |  | inactive
24 | C[C@H]1SC(c2ccc(Cl)cc2Cl)N(NC(=O)c2ccncc2)C1=O (stereo partly specified) | > 200 µM | 33.9 µM | 
25 | CC(=O)NNC(=S)N/C=C(\C#N)C(=O)c1ccc2ccccc2c1 | > 200 µM | > 200 µM | 
26 | C1CCC(OC2CSC2)OC1 (stereo unspecified) | > 389 µM | > 389 µM | 
27 | COc1ccc(N2C(=O)[C@@H](N=[N+]=[N-])[C@@H]2[C@H]2COC(C)(C)O2)cc1 | > 407 µM | > 407 µM | 
28 | O=c1c(-c2ccccc2)c2oc(c1-c1ccccc1)CSCc1cccc(c1)CSC2 | > 1.7 µM | > 1.7 µM | 
29 | CC1(C)OCC(C(O)C2OC(C)(C)OC2C=O)O1 (stereo unspecified) | > 200 µM | > 200 µM | 
30 | O=S(=O)(Nc1nc2ccccc2n1S(=O)(=O)c1ccccc1)c1ccccc1 | 81.3 µM | 97.7 µM | 
31 | C#Cc1c(C)c(/C=C/C(C)=C/C(=O)OC)n(C)c1C |  |  | inactive
32 | CCC(C)C(N)C(=O)NC(C(=O)NC(CO)C(=O)NC(C)C(=O)NC(CO)C(=O)NC(C(=O)NC(CCCCN)C(=O)NC(CCCCN)C(=O)NC(CO)C(=O)NC(Cc1ccccc1)C(=O)O)C(C)CC)C(C)CC (stereo unspecified) (H-IISASIKKSF-OH; configuration not given here) |  |  | inactive

From PubChem BioAssay AID179 (DTP/NCI, 2004)
